Source: paper PMC4208292 (Bioorganic & medicinal chemistry letters, 2012)
“Also recorded” adds a separate entry of the source.

How the values were obtained:
FLT3(D835Y) = target: T1, FLT3(D835Y) (Homo sapiens, UniProt P36888, D835Y); test: Kinase-binding assay; conditions: 10 μM; KINOMEscan profile
T1 sequence (P36888 27-993 D835Y): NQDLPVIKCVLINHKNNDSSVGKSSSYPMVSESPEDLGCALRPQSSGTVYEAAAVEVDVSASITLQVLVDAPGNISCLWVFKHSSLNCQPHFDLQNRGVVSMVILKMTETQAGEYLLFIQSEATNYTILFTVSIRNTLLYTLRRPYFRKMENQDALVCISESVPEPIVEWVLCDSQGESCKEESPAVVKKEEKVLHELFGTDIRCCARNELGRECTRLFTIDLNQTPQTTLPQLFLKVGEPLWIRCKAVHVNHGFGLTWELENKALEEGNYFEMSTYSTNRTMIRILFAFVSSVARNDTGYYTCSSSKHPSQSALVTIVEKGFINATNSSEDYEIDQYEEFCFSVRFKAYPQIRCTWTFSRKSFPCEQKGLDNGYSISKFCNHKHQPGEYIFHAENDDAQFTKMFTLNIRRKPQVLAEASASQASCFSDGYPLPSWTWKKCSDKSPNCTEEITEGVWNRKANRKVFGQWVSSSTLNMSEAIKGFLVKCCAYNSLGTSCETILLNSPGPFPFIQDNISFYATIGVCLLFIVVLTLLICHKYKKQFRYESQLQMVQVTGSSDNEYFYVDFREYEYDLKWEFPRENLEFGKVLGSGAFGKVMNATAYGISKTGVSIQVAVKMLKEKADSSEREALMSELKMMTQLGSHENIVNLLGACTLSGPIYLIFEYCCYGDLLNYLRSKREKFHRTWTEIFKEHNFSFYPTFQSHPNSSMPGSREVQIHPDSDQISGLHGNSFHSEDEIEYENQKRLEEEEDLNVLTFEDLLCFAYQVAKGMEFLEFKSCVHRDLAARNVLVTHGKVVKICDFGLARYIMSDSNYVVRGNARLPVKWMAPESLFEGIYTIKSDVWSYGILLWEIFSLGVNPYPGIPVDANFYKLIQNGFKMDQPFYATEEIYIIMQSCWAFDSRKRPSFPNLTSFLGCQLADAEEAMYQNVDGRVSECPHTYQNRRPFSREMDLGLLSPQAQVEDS

smMLCK = smMLCK (Homo sapiens, UniProt Q15746); test: Radioactivity-based enzymatic kinase panel; format: biochemical
ALK = ALK (Homo sapiens, UniProt Q9UM73); test: Kinase-binding assay; conditions: 10 μM; KINOMEscan profile
ALK, sequence (Q9UM73 19-1620, species assumed): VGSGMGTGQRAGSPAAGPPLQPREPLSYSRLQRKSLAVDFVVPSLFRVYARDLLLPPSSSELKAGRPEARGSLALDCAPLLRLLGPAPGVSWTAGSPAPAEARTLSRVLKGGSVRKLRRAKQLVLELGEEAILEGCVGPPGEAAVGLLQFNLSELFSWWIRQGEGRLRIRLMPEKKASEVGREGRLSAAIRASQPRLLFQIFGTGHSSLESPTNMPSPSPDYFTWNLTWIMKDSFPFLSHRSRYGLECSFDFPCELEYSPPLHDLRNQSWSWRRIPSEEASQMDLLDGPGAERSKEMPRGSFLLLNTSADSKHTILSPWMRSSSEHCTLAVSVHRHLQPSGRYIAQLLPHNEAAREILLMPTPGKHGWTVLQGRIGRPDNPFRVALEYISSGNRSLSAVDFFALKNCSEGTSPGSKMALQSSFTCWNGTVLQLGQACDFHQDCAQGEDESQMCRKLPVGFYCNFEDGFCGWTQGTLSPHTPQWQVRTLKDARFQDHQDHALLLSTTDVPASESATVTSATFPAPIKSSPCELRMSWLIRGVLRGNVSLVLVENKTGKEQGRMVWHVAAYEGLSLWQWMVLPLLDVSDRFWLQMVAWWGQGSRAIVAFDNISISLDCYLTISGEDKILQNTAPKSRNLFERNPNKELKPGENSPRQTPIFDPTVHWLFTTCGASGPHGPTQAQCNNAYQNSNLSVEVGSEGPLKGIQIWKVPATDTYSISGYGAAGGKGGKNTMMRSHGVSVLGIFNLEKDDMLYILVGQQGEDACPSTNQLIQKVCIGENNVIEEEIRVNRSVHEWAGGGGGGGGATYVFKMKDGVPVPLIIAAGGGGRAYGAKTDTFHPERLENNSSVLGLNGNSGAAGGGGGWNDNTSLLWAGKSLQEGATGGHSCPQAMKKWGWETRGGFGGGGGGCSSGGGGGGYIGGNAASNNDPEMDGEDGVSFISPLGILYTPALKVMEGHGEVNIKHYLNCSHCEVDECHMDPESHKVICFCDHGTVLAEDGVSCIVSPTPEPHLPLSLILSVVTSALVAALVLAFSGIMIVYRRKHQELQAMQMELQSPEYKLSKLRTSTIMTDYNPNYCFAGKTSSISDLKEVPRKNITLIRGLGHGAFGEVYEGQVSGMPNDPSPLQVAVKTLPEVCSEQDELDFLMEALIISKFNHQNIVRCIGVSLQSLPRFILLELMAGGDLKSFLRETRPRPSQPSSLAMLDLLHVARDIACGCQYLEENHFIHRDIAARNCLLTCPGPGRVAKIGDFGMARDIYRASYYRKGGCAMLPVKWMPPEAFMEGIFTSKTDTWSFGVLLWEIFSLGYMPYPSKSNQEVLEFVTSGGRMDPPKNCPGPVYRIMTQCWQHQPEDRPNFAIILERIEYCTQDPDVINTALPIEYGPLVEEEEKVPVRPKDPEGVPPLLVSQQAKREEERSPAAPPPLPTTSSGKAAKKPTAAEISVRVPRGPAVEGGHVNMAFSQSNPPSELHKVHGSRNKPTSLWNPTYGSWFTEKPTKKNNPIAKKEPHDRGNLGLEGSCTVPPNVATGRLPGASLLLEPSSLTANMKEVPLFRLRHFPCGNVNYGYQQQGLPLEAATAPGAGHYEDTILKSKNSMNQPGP

[1] = Pharmacokinetic profile in mice; format: in vivo; conditions: male, Swiss Albino, mouse, brain, iv, 1 mg/kg
LRRK2 = LRRK2 (Mus musculus, UniProt Q5S006); test: Pharmacodynamic study of LRRK2 Ser910/Ser935 phosphorylation in mouse tissues; format: in vivo; conditions: intraperitoneal 100 mg/kg, normal mice
LRRK2, sequence (Q5S006 whole entry): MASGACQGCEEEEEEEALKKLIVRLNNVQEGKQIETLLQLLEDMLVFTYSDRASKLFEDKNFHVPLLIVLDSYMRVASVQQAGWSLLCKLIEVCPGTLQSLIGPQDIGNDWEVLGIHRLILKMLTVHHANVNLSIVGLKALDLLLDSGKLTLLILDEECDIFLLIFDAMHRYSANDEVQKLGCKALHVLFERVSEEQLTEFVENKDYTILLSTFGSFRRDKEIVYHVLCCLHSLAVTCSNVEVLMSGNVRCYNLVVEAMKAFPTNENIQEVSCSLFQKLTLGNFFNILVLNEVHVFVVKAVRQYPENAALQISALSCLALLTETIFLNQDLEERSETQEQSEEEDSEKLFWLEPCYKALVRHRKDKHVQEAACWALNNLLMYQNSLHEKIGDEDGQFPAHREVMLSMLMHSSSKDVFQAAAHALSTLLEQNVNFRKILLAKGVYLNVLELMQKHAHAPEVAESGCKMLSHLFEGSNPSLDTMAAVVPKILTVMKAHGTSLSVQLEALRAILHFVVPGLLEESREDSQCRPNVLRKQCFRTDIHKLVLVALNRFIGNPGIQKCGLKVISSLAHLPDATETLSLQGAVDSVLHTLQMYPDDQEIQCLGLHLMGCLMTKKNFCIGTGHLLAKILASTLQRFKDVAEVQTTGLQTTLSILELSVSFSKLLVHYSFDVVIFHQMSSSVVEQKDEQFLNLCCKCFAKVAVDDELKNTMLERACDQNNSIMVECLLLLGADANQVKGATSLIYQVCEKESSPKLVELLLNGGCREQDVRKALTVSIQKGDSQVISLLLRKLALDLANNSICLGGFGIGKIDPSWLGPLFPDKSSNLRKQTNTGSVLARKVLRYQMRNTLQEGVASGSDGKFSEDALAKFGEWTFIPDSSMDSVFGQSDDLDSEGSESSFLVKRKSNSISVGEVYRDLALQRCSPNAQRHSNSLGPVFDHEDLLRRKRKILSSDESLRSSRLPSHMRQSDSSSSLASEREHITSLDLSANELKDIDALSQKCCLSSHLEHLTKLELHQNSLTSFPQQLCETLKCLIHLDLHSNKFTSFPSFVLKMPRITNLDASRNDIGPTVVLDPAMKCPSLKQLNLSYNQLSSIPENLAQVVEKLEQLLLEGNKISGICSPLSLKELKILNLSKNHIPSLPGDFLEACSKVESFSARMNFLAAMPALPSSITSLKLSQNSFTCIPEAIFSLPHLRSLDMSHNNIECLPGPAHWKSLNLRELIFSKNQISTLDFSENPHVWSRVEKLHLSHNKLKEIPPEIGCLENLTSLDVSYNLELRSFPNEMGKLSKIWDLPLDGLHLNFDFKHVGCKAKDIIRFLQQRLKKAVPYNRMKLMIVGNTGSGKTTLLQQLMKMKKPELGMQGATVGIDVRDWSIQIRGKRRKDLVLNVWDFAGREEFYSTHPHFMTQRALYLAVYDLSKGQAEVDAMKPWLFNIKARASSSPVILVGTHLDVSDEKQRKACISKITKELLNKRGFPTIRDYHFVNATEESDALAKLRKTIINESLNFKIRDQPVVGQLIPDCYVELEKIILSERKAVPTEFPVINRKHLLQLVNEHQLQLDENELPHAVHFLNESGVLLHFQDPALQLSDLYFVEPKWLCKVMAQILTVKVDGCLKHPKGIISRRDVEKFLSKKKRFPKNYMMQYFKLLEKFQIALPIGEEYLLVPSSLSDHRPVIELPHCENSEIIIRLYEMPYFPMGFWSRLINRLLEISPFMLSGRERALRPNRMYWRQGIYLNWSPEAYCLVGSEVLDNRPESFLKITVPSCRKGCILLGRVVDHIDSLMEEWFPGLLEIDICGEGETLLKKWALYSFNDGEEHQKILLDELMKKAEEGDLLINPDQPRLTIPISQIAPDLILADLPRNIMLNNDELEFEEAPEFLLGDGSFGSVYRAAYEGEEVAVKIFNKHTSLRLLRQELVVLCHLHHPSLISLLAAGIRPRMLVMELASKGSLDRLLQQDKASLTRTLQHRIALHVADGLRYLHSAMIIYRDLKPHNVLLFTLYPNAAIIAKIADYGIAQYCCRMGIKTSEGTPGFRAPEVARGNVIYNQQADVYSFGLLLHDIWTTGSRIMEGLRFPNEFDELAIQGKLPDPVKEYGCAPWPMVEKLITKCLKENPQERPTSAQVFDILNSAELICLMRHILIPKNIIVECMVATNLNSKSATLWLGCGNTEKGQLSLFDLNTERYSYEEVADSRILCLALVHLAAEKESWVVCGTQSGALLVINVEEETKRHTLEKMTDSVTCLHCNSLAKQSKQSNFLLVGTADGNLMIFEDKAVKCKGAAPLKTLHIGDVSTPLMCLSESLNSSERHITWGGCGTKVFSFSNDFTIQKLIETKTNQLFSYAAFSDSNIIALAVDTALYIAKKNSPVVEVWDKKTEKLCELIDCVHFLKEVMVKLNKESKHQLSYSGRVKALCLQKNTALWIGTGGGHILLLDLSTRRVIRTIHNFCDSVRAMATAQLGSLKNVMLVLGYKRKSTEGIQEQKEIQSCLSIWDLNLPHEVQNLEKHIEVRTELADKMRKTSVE

GFP-LRRK2[A2016T] = GFP-LRRK2[A2016T] (Homo sapiens, UniProt Q5S007, A2016T); test: Ser910/Ser935 phosphorylation immunoblot in stably transfected HEK293 cells; conditions: 90 min
[2] = target: T2, wild-type LRRK2 (GST-LRRK2(1326–2517)) (Homo sapiens, UniProt Q5S007); test: LRRK2 enzyme activity assay
T2 sequence (Q5S007 1326-2517): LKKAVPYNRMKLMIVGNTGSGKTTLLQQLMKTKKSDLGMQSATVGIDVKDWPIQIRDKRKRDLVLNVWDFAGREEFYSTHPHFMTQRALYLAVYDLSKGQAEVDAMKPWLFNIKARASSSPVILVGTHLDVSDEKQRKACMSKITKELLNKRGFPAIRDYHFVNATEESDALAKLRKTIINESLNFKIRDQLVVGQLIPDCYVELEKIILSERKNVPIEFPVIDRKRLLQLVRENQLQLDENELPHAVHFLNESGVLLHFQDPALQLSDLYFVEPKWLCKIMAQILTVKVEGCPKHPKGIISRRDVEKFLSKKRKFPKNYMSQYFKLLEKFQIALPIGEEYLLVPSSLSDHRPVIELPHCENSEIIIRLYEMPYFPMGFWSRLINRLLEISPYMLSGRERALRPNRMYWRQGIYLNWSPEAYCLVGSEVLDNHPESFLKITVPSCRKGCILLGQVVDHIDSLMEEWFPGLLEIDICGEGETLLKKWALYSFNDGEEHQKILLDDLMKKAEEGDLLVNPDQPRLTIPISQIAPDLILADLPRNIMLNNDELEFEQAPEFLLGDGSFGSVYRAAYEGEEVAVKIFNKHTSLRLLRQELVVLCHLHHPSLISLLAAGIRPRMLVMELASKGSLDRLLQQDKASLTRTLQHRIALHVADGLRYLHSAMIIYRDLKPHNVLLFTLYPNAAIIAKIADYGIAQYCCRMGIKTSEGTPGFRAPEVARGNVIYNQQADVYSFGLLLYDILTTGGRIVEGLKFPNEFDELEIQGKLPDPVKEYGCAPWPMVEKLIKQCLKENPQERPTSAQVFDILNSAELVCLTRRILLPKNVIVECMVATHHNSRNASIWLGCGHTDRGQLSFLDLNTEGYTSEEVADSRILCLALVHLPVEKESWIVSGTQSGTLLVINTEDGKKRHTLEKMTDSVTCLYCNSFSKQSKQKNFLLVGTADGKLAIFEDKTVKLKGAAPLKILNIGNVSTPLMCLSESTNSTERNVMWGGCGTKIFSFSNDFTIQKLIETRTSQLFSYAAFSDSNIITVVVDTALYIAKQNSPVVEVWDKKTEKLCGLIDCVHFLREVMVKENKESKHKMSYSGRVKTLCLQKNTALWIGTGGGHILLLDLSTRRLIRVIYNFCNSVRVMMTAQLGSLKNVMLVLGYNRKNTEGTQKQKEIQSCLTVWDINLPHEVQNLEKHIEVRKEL

With `O=C(Nc1cccnc1)c1cc(-c2ccnc(F)c2)ccc1OCc1ccccc1` [GSK2578215A, 2-(benzyloxy)-5-(2-fluoropyridin-4-yl)-N-(pyridin-3-yl)benzamide] the ambit score (FLT3(D835Y)) was < 10, the inhibition at 10 µM (smMLCK) was > 50% and the ambit score (ALK) was < 10. For the same molecule, the clearance [1] was 22.1 mL/min/kg, the “inhibition of LRRK2 Ser910 or Ser935 phosphorylation in brain” value (LRRK2; brain) was “no inhibition; also recorded: failed to induce significant inhibition” and the “Ser910 and Ser935 dephosphorylation of LRRK2 in kidney” value (LRRK2; kidney) was “complete Ser910 and Ser935 dephosphorylation”. The “Ser910 and Ser935 dephosphorylation of LRRK2 in spleen” value (LRRK2; spleen) was “complete Ser910 and Ser935 dephosphorylation”, the “concentration inducing dephosphorylation of Ser910 and 935” value (GFP-LRRK2[A2016T]) was 1 to 3 µM and the IC50 [2] was ~10 nM.
